Measurements reported in patent US20230000812A1, “IBUPROFEN ESTER PRODRUG, PHARMACEUTICAL COMPOSITION, PREPARATION METHOD AND APPLICATION” (NANJING HERON PHARMACEUTICAL SCIENCE AND TECHNOLOGY CO., …, priority 2020, published 2023).
Read-outs that look alike come from different tables or passages of the source.

Legend:
[1] = In vitro human plasma metabolism (enzymolysis kinetics test in human plasma); settings: for metabolic rate (hydrolysis rate) in human plasma: 0-120 min, FIG. 1 and 2; for degradation rate of the peaks in human plasma: liquid chromatograms, FIG. 3-5
Protocol: The test scheme was as follows.
The test method was as follows:
(§2) (1) a stock solution of Compound NX (where X represents a different compound number) of the present application in pure acetonitrile (40 mM) was prepared, a stock solution of flurbiprofen axetil in pure acetonitrile (40 mM) was prepared, and a stock solution of ibuprofen in pure acetonitrile (40 mM) was prepared.
(§3) (2) the stock solution of flurbiprofen axetil/ibuprofen (25 μL) was mixed with 1 mL of human plasma and vortexed for 30 s. A sample (200 μL) was taken, added with 800 μL of acetonitrile to precipitate proteins and vortexed for 1 min, and the reaction was stopped as a flurbiprofen axetil/ibuprofen control; and the stock solution of the compound of the present application (40 mM) and the stock solution of flurbiprofen axetil (40 mM) were diluted 200 times separately as prodrug controls;
(§4) (4) the stock solution of the compound of the present application in pure acetonitrile (100 μL) and the stock solution of flurbiprofen axetil in pure acetonitrile (100 μL) were mixed with 4 mL of human plasma, separately, vortexed for 30 s, and placed in an oscillating constant temperature water bath heater at 37° C. and oscillated at 200 rpm;
(§5) (6) the samples were centrifuged at 12000 rpm for 10 min at 4° C., the supernatant was taken and injected at a volume of 30 μL (through a filter membrane), and changes of a peak area were recorded;

[2] = Stability of dextrorotatory enantiomers in solvents (MCT, soybean oil, phosphate buffer of Tween 80) at 80° C.; format: physicochemical; settings: for purity of the isomer: oil phase or water phase; for purity of the isomer / related substances in the oil phase / content of the related substance in the water phase: 10 days
Protocol: Samples were placed at 80° C., and samples were taken on Day 0, 5, and 10 to determine the purity of the compounds and changes of the related substance (ibuprofen) and an isomer (levorotatory).
4.2 Determination of the related substance in accordance with high-performance liquid chromatography (Chinese Pharmacopoeia 2015 Edition General Rules 0512)
(1) Chromatographic conditions: Chromatographic column: Agilent ZORBAX SB-C8, 4.6 mm×250 mm, 5 μm; mobile phase: 0.1% phosphoric acid solution-acetonitrile (50:50); detection wavelength: 220 nm; flowrate: 1.0 mL per minute; column temperature: 40° C.
(§1) (2) Determination method: An appropriate amount of the substance was taken, accurately weighed, added with a diluent [anhydrous ethanol], shaken to be dissolved, quantitatively diluted into a solution of about 0.4 mg/mL, and vortexed for 30s. The solution was filtered with a PTFE filter membrane (0.22 μm, Jinteng) and the filtrate was used as the test solution, 10 μL was accurately measured into a liquid chromatograph and the chromatogram was recorded. In the chromatogram of the test solution, if there were impurity peaks, the results should be obtained by calculation according to a peak area normalization method.
4.3 Determination of the isomer in accordance with high-performance liquid chromatography (Chinese Pharmacopoeia 2015 Edition General Rules 0512)
as §1, with “Determination” for “(2) Determination”, “isomer” for “substance”, “[n-hexane-isopropanol (90:10)],” for “[anhydrous ethanol],”, “1.0” for “0.4”, “isomer” for “impurity”

[3] = human, 0.98 mM; for Amount of Active Metabolites Produced (%): 120 min; for Remaining Amount of the Prodrug Compound (%): plasma, 2 h
Protocol: The test scheme was as follows.
The test method was as follows:
as §2, §3, §4, §5

[4] = Pharmacokinetics in rats after tail vein injection (Test Example 4); settings: rat, in vivo
Protocol: The whole blood was centrifuged at 8000 rpm for 5 min, and plasma samples were taken and stored at −80° C., separately.
Preparation of test solutions: the test solutions were administered through tail veins of rats at a volume of […].

[5] = Phosphate buffer of Tween 80, 80° C., Day 0
[6] = Phosphate buffer of Tween 80, 80° C., Day 5
[7] = Phosphate buffer of Tween 80, 80° C., Day 10

Structure (SMILES): CCOC(=O)OC(CC)OC(=O)[C@@H](C)c1ccc(CC(C)C)cc1 (stereo partly drawn) [Compound N9S]
- metabolic rate (hydrolysis rate) in human plasma ([1]; human plasma): relatively fast metabolic rates close to that of S-FPA
- Remaining Amount of the Prodrug Compound (%) ([1]; human plasma, 37° C., 120 min): 45.0 ± 2.1%
- Isomer (%) ([2]; MCT, 80° C., Day 0): 0.95%
- Purity of related Main Peak (%) ([2]; MCT, 80° C., Day 0): 99.80%
- Ibuprofen (%) ([2]; MCT, 80° C., Day 5): 0.02%
- Isomer (%) ([2]; MCT, 80° C., Day 5): 0.95%
- Purity of related Main Peak (%) ([2]; MCT, 80° C., Day 5): 99.78%
- Ibuprofen (%) ([2]; MCT, 80° C., Day 10): 0.04%
- Isomer (%) ([2]; MCT, 80° C., Day 10): 0.94%
- Purity of related Main Peak (%) ([2]; MCT, 80° C., Day 10): 99.66%
- Ibuprofen (%) [2, 5]: 0.63%
- Isomer (%) [2, 5]: 0.86%
- Purity of related Main Peak (%) [2, 5]: 99.03%
- Ibuprofen (%) [2, 6]: 5.27%
- Isomer (%) [2, 6]: 1.19%
- Purity of related Main Peak (%) [2, 6]: 92.78%
- Ibuprofen (%) [2, 7]: 8.76%
- Isomer (%) [2, 7]: 1.78%
- Purity of related Main Peak (%) [2, 7]: 87.97%
- Isomer (%) ([2]; Soybean oil, 80° C., Day 0): 0.91%
- Purity of related Main Peak (%) ([2]; Soybean oil, 80° C., Day 0): 99.85%
- Ibuprofen (%) ([2]; Soybean oil, 80° C., Day 5): 0.09%
- Isomer (%) ([2]; Soybean oil, 80° C., Day 5): 0.90%
- Purity of related Main Peak (%) ([2]; Soybean oil, 80° C., Day 5): 99.57%
- Ibuprofen (%) ([2]; Soybean oil, 80° C., Day 10): 0.13%
- Isomer (%) ([2]; Soybean oil, 80° C., Day 10): 0.97%
- Purity of related Main Peak (%) ([2]; Soybean oil, 80° C., Day 10): 99.38%
- purity of the isomer ([2]; 80° C.): remains basically unchanged
- related substances in the oil phase ([2]; 80° C.): remain basically unchanged
- content of the related substance in the water phase ([2]; 80° C.): increases

Structure (SMILES): CCOC(=O)O[C@@H](C)OC(=O)[C@@H](C)c1ccc(CC(C)C)cc1 [N6(S)-2]
- degradation rate of the peaks in human plasma [1]: different degradation rates

Structure (SMILES): CCC(OC(=O)OC(C)C)OC(=O)[C@@H](C)c1ccc(CC(C)C)cc1 (stereo partly drawn) [Compound N10S]
- metabolic rate (hydrolysis rate) in human plasma ([1]; human plasma): relatively slow metabolic rates

Structure (SMILES): CC(C)Cc1ccc([C@H](C)C(=O)OC(C)OC(=O)OC(C)C)cc1 (stereo partly drawn) [Compound N2S]
- metabolic rate (hydrolysis rate) in human plasma ([1]; human plasma): relatively slow metabolic rates
- Remaining Amount of the Prodrug Compound (%) ([1]; human plasma, 37° C., 120 min): 78.6 ± 2.6%
- degradation rate of the peaks in human plasma [1]: relatively slow degradation rate

Structure (SMILES): CC(=O)OC(C)OC(=O)C(C)c1ccc(-c2ccccc2)c(F)c1 (stereo not drawn) [FPA, flurbiprofen axetil, reference compound]
- Remaining Amount of the Prodrug Compound (%) [1]: 50.9 ± 2.5%

Structure (SMILES): CCOC(=O)O[C@@H](CC)OC(=O)[C@@H](C)c1ccc(CC(C)C)cc1 [N9(S)-2]
- degradation rate of the peaks in human plasma [1]: different degradation rates

Structure (SMILES): CCOC(=O)OC(CC)OC(=O)C(C)c1ccc(CC(C)C)cc1 (stereo not drawn) [Compound N9]
- Amount of Active Metabolites Produced (%) [3]: 20.3 ± 0.8%
- Remaining Amount of the Prodrug Compound (%) [3]: 62.5 ± 1.3%
- AUC0-t compared with dexibuprofen salt solution directly injected [4]: no significant difference

Structure (SMILES): CC(=O)OC(C)OC(=O)[C@@H](C)c1ccc(-c2ccccc2)c(F)c1 (stereo partly drawn) [S-FPA, reference compound]
- Amount of Active Metabolites Produced (%) ([1]; human plasma, 37° C., 120 min): 44.3 ± 2.3%
- Remaining Amount of the Prodrug Compound (%) ([1]; human plasma, 37° C., 120 min): 37.4 ± 1.9%

Structure (SMILES): CCOC(=O)OC(C)OC(=O)C(C)c1ccc(CC(C)C)cc1 (stereo not drawn) [Compound N6]
- Remaining Amount of the Prodrug Compound (%) [3]: 58.96 ± 3.1%

Structure (SMILES): CC(C)Cc1ccc(C(C)C(=O)OC(C)OC(=O)OC(C)C)cc1 (stereo not drawn) [Compound N2]
- Amount of Active Metabolites Produced (%) [3]: 10.7 ± 0.4%
- Remaining Amount of the Prodrug Compound (%) [3]: 87.4 ± 5.3%

Structure (SMILES): CCOC(=O)O[C@H](C)OC(=O)[C@@H](C)c1ccc(CC(C)C)cc1 [N6(S)-1]
- degradation rate of the peaks in human plasma [1]: different degradation rates

Structure (SMILES): CCOC(=O)OC(C)OC(=O)[C@@H](C)c1ccc(CC(C)C)cc1 (stereo partly drawn) [Compound N6S]
- metabolic rate (hydrolysis rate) in human plasma ([1]; human plasma): relatively fast metabolic rates close to that of S-FPA
- Remaining Amount of the Prodrug Compound (%) ([1]; human plasma, 37° C., 120 min): 40.5 ± 1.6%
- Ibuprofen (%) ([2]; MCT, 80° C., Day 0): 0.03%
- Isomer (%) ([2]; MCT, 80° C., Day 0): 3.26%
- Purity of related Main Peak (%) ([2]; MCT, 80° C., Day 0): 99.89%
- Ibuprofen (%) ([2]; MCT, 80° C., Day 5): 0.05%
- Isomer (%) ([2]; MCT, 80° C., Day 5): 3.47%
- Purity of related Main Peak (%) ([2]; MCT, 80° C., Day 5): 99.88%
- Ibuprofen (%) ([2]; MCT, 80° C., Day 10): 0.06%
- Isomer (%) ([2]; MCT, 80° C., Day 10): 3.45%
- Purity of related Main Peak (%) ([2]; MCT, 80° C., Day 10): 99.87%
- Ibuprofen (%) [2, 5]: 2.42%
- Isomer (%) [2, 5]: 3.68%
- Purity of related Main Peak (%) [2, 5]: 97.56%
- Ibuprofen (%) [2, 6]: 10.24%
- Isomer (%) [2, 6]: 3.97%
- Purity of related Main Peak (%) [2, 6]: 89.66%
- Ibuprofen (%) [2, 7]: 16.98%
- Isomer (%) [2, 7]: 3.88%
- Purity of related Main Peak (%) [2, 7]: 82.73%
- Ibuprofen (%) ([2]; Soybean oil, 80° C., Day 0): 0.03%
- Isomer (%) ([2]; Soybean oil, 80° C., Day 0): 3.26%
- Purity of related Main Peak (%) ([2]; Soybean oil, 80° C., Day 0): 99.84%
- Ibuprofen (%) ([2]; Soybean oil, 80° C., Day 5): 0.08%
- Isomer (%) ([2]; Soybean oil, 80° C., Day 5): 3.21%
- Purity of related Main Peak (%) ([2]; Soybean oil, 80° C., Day 5): 99.79%
- Ibuprofen (%) ([2]; Soybean oil, 80° C., Day 10): 0.16%
- Isomer (%) ([2]; Soybean oil, 80° C., Day 10): 3.20%
- Purity of related Main Peak (%) ([2]; Soybean oil, 80° C., Day 10): 99.47%
- purity of the isomer ([2]; 80° C.): remains basically unchanged
- related substances in the oil phase ([2]; 80° C.): remain basically unchanged
- content of the related substance in the water phase ([2]; 80° C.): increases
